“And” between values parts separate entries of the source, which are not always exact repeats. Equal values may be shown once. Square brackets hold non-standard residues; d marks the D form. Nva = CCC[C@H](N)C(=O)O; Sar = CNCC(=O)O
Key:
[1] = tested on: CD36 knockdown RF/6A cells; test: EdU assay in CD36 knockdown cells; type: cell-based; conditions: Fig 5 data, exogenous VEGF alone, single replicates (n = 4)
Description: The Cell Counting Kit-8 (CCK-8) from Proteintech (China) and 5-ethynyl-2′-deoxyuridine (EdU)-488™ kit from Beyotime (China) were employed for the assessment of the proliferative viability of RF/6A cell. Additionally, 10^4 cells were plated in 96-well plates. After 24 h of intervention, according to different groups, CCK-8 detection reagent was added, and the optical density was recorded at 450 nm during the following 4 h. Regarding the EdU assay, 2 × 10^4 cells were cultured in 24-well plates after 24 h of intervention according to different groups. Firstly, the EdU working solution (20μM) preheated at 37 ° C was combined with medium at the ratio of 1:1. Secondly, the cells were washed three times with (phosphate buffered saline) PBS after the fixing with 4% paraformaldehyde for 15 min. Subsequently, the samples were permeabilized with PBS that contained 0.3% Triton X-100 for 10 min, followed by three times of washing with PBS, after which the EdU detection was conducted. Whereafter, 100 μL Click reaction solution was added to each well and incubated at room temperature in the dark for 30 min, followed by washing again with PBS, the Click reaction solution configuration method was shown in Table 1. Finally, fluorescence detection was performed after nuclear staining by Hoechst 33342. […]

[2] = tested on: RF/6A cells; test: CCK-8 cell viability assay; type: cell-based; conditions: CCK-8, different concentrations of recombinant human VEGF165 (S2 Fig A)
Description: (§1) RF/6A cells were obtained from Cell Cook, China. The cells were maintained in minimum essential medium supplemented with 10% fetal Bovine serum (Viva Cell, China) and 1% penicillin-streptomycin solution (Viva Cell, China). Additionally, the samples were cultured in an incubator under the condition of 37 °C and 5% CO2.
(§2) The Cell Counting Kit-8 (CCK-8) from Proteintech (China) and 5-ethynyl-2′-deoxyuridine (EdU)-488™ kit from Beyotime (China) were employed for the assessment of the proliferative viability of RF/6A cell. Additionally, 10^4 cells were plated in 96-well plates. After 24 h of intervention, according to different groups, CCK-8 detection reagent was added, and the optical density was recorded at 450 nm during the following 4 h. Regarding the EdU assay, 2 × 10^4 cells were cultured in 24-well plates after 24 h of intervention according to different groups. Firstly, the EdU working solution (20μM) preheated at 37 ° C was combined with medium at the ratio of 1:1. Secondly, the cells were washed three times with (phosphate buffered saline) PBS after the fixing with 4% paraformaldehyde for 15 min. Subsequently, the samples were permeabilized with PBS that contained 0.3% Triton X-100 for 10 min, followed by three times of washing with PBS, after which the EdU detection was conducted. […] Finally, fluorescence detection was performed after nuclear staining by Hoechst 33342.

[3] = tested on: VEGF; test: Western blot of VEGF in RF/6A cells; type: cell-based; conditions: exogenous VEGF 1 ng/mL
Description: (§3) Western blot analysis was employed in this study for the assessment of the expression levels of proteins. Total protein was extracted with Radioimmunoprecipitation (RIPA) buffer (Solarbio, China) that contained phenylmethanesulfonyl fluoride (PMSF), followed by separation by 10% sodium dodecyl sulfate–polyacrylamide gel electrophoresis (SDS-PAGE, Yazyme, China). Additionally, the constant pressure of 80 V was used for 40–50 min during the electrophoresis of the proteins in compression gel. Besides, the voltage was adjusted to 120 V after the entering of proteins to the separating gel. Subsequently, proteins were transferred onto a polyvinylidene difluoride (PVDF) membrane (Millipore, USA), and the operation time was determined according to the molecular weight of the protein (VEGF-55 min, CD31-91 min). The membrane was blocked with 5% non-fat milk for 2 h and incubated with primary antibodies overnight at 4 °C, and the primary antibody was diluted with Tris-Buffered Saline with Tween 20 (TBST) following the instructions. Subsequently, the samples were washed three times with TBST, incubated with the corresponding secondary antibody for 90 min at room temperature, and washed three times with TBST. Besides, Electrochemiluminescence (Invitrogen iBright™ FL1500) was used for the visualization of proteins, followed by the imaging analysis of the experimental results. […]

[4] = tested on: RF/6A cells; test: Wound-healing assay; type: cell-based; conditions: 1 ng/mL exogenous VEGF, 24 h
Description: as §1
After the drawing of 3 parallel lines at the external bottom surface of a 6-well plate, 4 × 10^5 RF/6A cells were seeded in it and incubated to a density of 80–90%. Next, scratches perpendicular to the drawn lines were made at the bottom of each well by a 200 μL pipette tip. Subsequently, the wells were rinsed three times with PBS to eliminate the floating cells. Whereafter, the medium was replaced with the serum that contained 1% fetal bovine. The wound healing process was assessed at the time point of 0 h and 24 h, alongside the acquirement of microscope images at 10× for the record and statistical analysis of the scratch distance. Additionally, the scratch healing rate was calculated as follows:
Scratch_healing_rate=0h_scratch_distance−24h_scratch_distance/0h_scratch_distance100% (1)

[5] = tested on: RF/6A cells; test: Flow cytometry, total apoptosis rate; type: cell-based
[6] = tested on: RF/6A cells; test: EdU proliferation assay; type: cell-based; conditions: Fig 2 data, 1 ng/mL exogenous VEGF alone, 24 h, single replicates (n = 4)
Description: as §1, §2

[7] = tested on: CD31; test: Western blot of CD31 in RF/6A cells; type: cell-based; conditions: exogenous VEGF 1 ng/mL
Description: as §3

[8] = stated in brackets for the recombinant human VEGF165 protein used; no test or source described; cited from earlier work
Description: CCK-8 and EdU assays were conducted to evaluate the cellular proliferation after a 24 h exposure to exogenous VEGF, which was amined to analyze the impact of 10 μg/mL VR-13 peptide on RF/6A cell proliferation induced through exogenous VEGF.

[9] = tested on: tumor growth; conditions: cited from earlier work; for apoptotic index of endothelial cells (in words): in vivo studies, mouse tumor models; for tumor growth (in words): syngeneic and xenograft mouse models
Source text: (§4) Additionally, TSP-1 could interact with various ligands, including extrac ...

[10] = tested on: VEGF-induced angiogenesis; conditions: cited from earlier work
Source text: as §4

Row | Substance | EdU positive(%) [1] | optimal concentration for inducing significant proliferation of RF/6A [2] [ng/mL] | VEGF expression in RF/6A cells after exogenous VEGF (in words) [3] | migration of RF/6A cells exposed to VEGF (in words) [4] | apoptosis rate ([5]; Fig 3 data, RF/6A, 1 ng/mL exogenous VEGF alone, single replicates (n = 6)) | apoptosis of RF/6A cells after exogenous VEGF (in words) ([5]; exogenous VEGF) | EdU positive(%) [6] | CD31 expression in RF/6A cells after exogenous VEGF (in words) [7] | EC50 [8] [ng/mL] | apoptotic index of endothelial cells (in words) [9] | tumor growth (in words) [9] | VEGF-induced angiogenesis (in words) [10]
1 | VEGF | 24% and 28.99% and 30.32% and 23.72% | 1 | significantly upregulated | strong cell migration ability | 8.99 and 11.46 and 10.46 and 11.80 and 11.97 and 12.71 | didn’t exhibit a connection with apoptosis | 37.99% and 38.36% and 36.47% and 33.64% | significantly upregulated | 0.3 to 3.75 | – | – | –
2 | Ac-Sar-Gly-Val-Dallolle-Thr-Nva-Ile-Arg-Pro-NHEt [ABT-510, anti-angiogenic nonapeptide based on TSP-1 type I repeats] | – | – | – | – | – | – | – | – | – | increase of the apoptotic index of endothelial cells | slow down the tumor growth | inhibit VEGF-induced angiogenesis
3 | Ac-[Sar]GV[dI]T[Nva]IRP-NHEt [ABT-526, anti-angiogenic nonapeptide based on TSP-1 type I repeats] | – | – | – | – | – | – | – | – | – | increase of the apoptotic index of endothelial cells | slow down the tumor growth | –
